Experimental findings from the Deep4Chem optical property database are described below.

The series is described as follows: solvent given as SMILES.

As to `CN(C)c1ccc2cc(C(/C=C/c3cn(C)c4ccccc34)=C(C#N)C#N)c(=O)oc2c1`, the emission maximum runs as follows: (in C1CCOC1) 584 nm; (in C1COCCO1) 568 nm; (in CN(C)C=O) 539 nm; (in CS(C)=O) 555 nm; (in ClCCl) 583 nm. For the setting “in ClC(Cl)Cl”, `CCCCCCN1C(=O)c2cccc3c(-c4scc5c4OCCO5)ccc(c23)C1=O` had an emission maximum of 484 nm. Where the note is “in CS(C)=O”, `COc1ccc(-c2c3nc(cc4ccc([nH]4)c(-c4ccc(OC)c(OCC(=O)O)c4)c4nc(cc5ccc2[nH]5)CC4)CC3)cc1OCC(=O)O` gave an emission maximum of 738 nm. The molecule `CCCCCCCCn1cc(-n2c(-c3cc(-c4nc5ccc(C)cc5n4-c4cn(CCCCCCCC)nn4)cc(-c4nc5ccc(C)cc5n4-c4cn(CCCCCCCC)nn4)c3)nc3ccc(C)cc32)nn1` registered an emission maximum (in C1CCOC1) of 382.5 nm.

Molecule `NNC(=O)c1ccc(/C=C/c2ccc(C(=O)NN)cc2)cc1` showed an emission maximum (in CN(C)C=O) of 395 nm. `CN(C)c1ccc(/C=C/c2ccc3ccccc3[n+]2C)cc1` showed an emission maximum (in CC#N) of 618 nm, an emission maximum (in ClCCl) of 645 nm and an emission maximum (in O) of 622 nm. For `CCOC(=O)c1c(-c2cc3c(ccc4ccccc43)oc2=O)nn(-c2cccc(C)c2)c1C(=O)OCC`, the emission maximum (in ClCCl) came out at 440 nm.

Consider `CCN(CC)c1cccc2c1ccc1c(=O)oc(-c3ccc(C(F)(F)F)cc3)cc12`, for which the emission maximum runs as follows: (in CC(C)=O) 604 nm; (in CCCCCC) 469 nm; (in CCCCCCCCO) 561 nm; (in CCCCO) 578 nm; (in CCCO) 587 nm; (in CCO) 599 nm. In addition, the emission maximum reads like this: (in CCOC(C)=O) 568 nm; (in CN(C)C=O) 613 nm; (in CO) 604 nm; (in ClC(Cl)Cl) 542 nm. With `C1=Cc2ccccc2C(=Cc2ccc(-c3ccc(C=C4c5ccccc5-c5ccccc54)cc3)cc2)c2ccccc21`, the emission maximum (in C1CCOC1) stood at 450 nm.

In turn, `Cc1cc(-c2ccccc2C)cc(C)[o+]1` displayed an emission maximum (in CC#N) of 518 nm and an emission maximum (in ClCCl) of 469 nm.

In turn, `c1cc2ccc1-c1ccc(cc1)-c1ccc([se]1)-c1ccc(cc1)-c1ccc(cc1)-c1ccc([se]1)-c1ccc(cc1)-c1ccc(cc1)-c1ccc([se]1)-c1ccc(cc1)-c1ccc(cc1)-c1ccc-2[se]1` had an emission maximum (in C1CCOC1) of 492 nm. For the molecule `Cc1cc(-c2ccc(-c3n(C)c4ccccc4[n+]3C)cc2)ccc1-c1ccc(-c2n(C)c3ccccc3[n+]2C)cc1`, the emission maximum (in O) is 399 nm.

Molecule `F[B-]1(F)n2c(cc3c2-c2ccccc2CC3)C(c2ccc(I)cc2)=C2C=C3CCc4ccccc4C3=[N+]21` came in with an emission maximum (in ClC(Cl)Cl) of 647 nm.

For the molecule `C(=C\c1nc2ccccc2s1)/c1ccccc1`, the emission maximum runs as follows: (in C1CCCCC1) 390 nm; (in CO) 400 nm. Molecule `COc1ccccc1C1=NC2c3cccc4cccc(c34)C2N1c1ccccc1` (centres undefined) showed an emission maximum (in Cc1ccccc1) of 379 nm. Regarding `Nc1ncc2nc[nH]c2n1`, the emission maximum (in O) was 380 nm. `COCCC1=Cc2nc1ccc1[nH]c(cc1CCOC)c1nc(c(N)cc3[nH]c2cc3CCOC)C(CCOC)=C1` came in with an emission maximum (in Cc1ccccc1) of 748 nm. `c1ccc2c3c(ccc2c1)-c1cccc2c1c-3cc1ccccc12` returned an emission maximum (in CCCCCCC) of 482 nm.

Take `c1ccc(COc2cc(C[n+]3ccc(-c4cc[n+](Cc5cc(OCc6ccccc6)cc(OCc6ccccc6)c5)cc4)cc3)cc(OCc3ccccc3)c2)cc1`: the emission maximum (in CC#N) is reported as 365 nm. On to `N#Cc1ccc(C=C(c2ccccc2)c2ccccc2)cc1`, for which the emission maximum (in C1CCOC1) was 390 nm. In the case of `CC(C)(C)c1ccc2c(c1)c1cc(C(C)(C)C)ccc1n2-c1ccc(S(=O)(=O)c2ccc(S(=O)(=O)c3ccc(-n4c5ccc(C(C)(C)C)cc5c5cc(C(C)(C)C)ccc54)cc3)cc2)cc1`, the emission maximum (in Cc1ccccc1) turned out to be 446 nm.

The molecule `COC(=O)C(NC(=O)OC(C)(C)C)c1ccc2oc(-c3cc(OC)ccc3OC)nc2c1` (centres undefined) showed an emission maximum (in CC1CCCCC1) of 364 nm, an emission maximum (in CC#N) of 390 nm and an emission maximum (in CO) of 405 nm. For the molecule `CCCCCCCCOC(=O)c1ccc(-c2cc3ccc4cc(-c5ccc(C(=O)OCCCCCCCC)cc5)cc5ccc(c2)c3c45)cc1`, for the setting “in Cc1ccccc1”, the emission maximum is recorded as 421 nm. For the molecule `COc1ccc(C#Cc2cc(C#Cc3ccc(OC)cc3)c(C#Cc3ccc(OC)cc3)c(C#Cc3ccc(OC)cc3)c2C#Cc2ccc(OC)cc2)cc1`, the emission maximum (in ClCCl) is on record as 437 nm. `COc1cc(/C=C/c2ccncc2)c(OC)cc1C=O`: the emission maximum was found to be 448 nm (in C1CCOC1); 465 nm (in CC#N); 463 nm (in CN(C)C=O); 446 nm (in Cc1ccccc1); 460 nm (in ClCCl).

As for `N#Cc1cc2ccccc2[nH]1`, the emission maximum by setting is: (in C1CCOC1) 328 nm; (in C1COCCO1) 329 nm; (in CC#N) 330 nm; (in CC(C)O) 332 nm; (in CCO) 334 nm; (in CO) 335 nm. The emission maximum turned out to be 335 nm (in CS(C)=O), 350 nm (in O) and 339 nm (in OCC(F)(F)F). In turn, `Cc1cc(C)c(-c2c3ccccc3c3ccc4cc5c(-c6c(C)cc(C)cc6C)c6ccccc6c6ccc7cc2c3c4c7c56)c(C)c1` returned an emission maximum (in ClCCl) of 617 nm. In turn, `c1ccc2c(c1)Sc1ccccc1S2` showed an emission maximum (in CC1CCCCC1) of 431 nm. With `C(=C\c1c2ccccc2cc2ccccc12)/c1ccc2ccccc2c1`, the emission maximum reads like this: (in CC1CCCCC1) 488 nm; (in CC#N) 490 nm.

The molecule `Cc1cc(/N=C/c2cc(S(=O)(=O)[O][Na])ccc2O)c(/N=C/c2cc(S(=O)(=O)[O][Na])ccc2O)cc1C` displayed an emission maximum (in O) of 426 nm. On to `Cc1ccc(-c2ccccc2)cc1`, for which the emission maximum (in C1CCCCC1) is on record as 333.89 nm.

The molecule `Clc1ccc(-c2nc(-c3ccccc3)sc2N(c2ccccc2)c2ccccc2)cc1` returned an emission maximum (in ClC(Cl)Cl) of 463 nm. Turning to `CCCCOc1c(-c2ccc(N(c3ccccc3)c3ccccc3)cc2)cc2cc(-c3ccc(N(c4ccccc4)c4ccccc4)cc3)c(OCCCC)c3c4c(OCCCC)c(-c5ccc(N(c6ccccc6)c6ccccc6)cc5)cc5cc(-c6ccc(N(c7ccccc7)c7ccccc7)cc6)c(OCCCC)c(c1c23)c54`, under “in ClCCl”, the emission maximum worked out at 490 nm. Consider `O=Cc1ccc(-c2ccc(O)c(-c3nc4ccccc4s3)c2)o1`, for which the emission maximum runs as follows: (in CCO) 550 nm; (in ClCCl) 553 nm; (in O) 564 nm. `COc1c2ccccc2c(OC)c2c(C#Cc3ccccc3)c3cc4sccc4cc3c(C#Cc3ccccc3)c12` registered an emission maximum (in ClCCl) of 672 nm.

`CCCC1=Cc2nc1ccc1[nH]c(cc1CCC)c1nc(c(OC(=O)CCCC(=O)OC(C)(C)C)cc3[nH]c2cc3CCC)C(CCC)=C1` had an emission maximum (in Cc1ccccc1) of 651 nm.

In turn, `COc1ccc(C2=c3sc(-c4ccc(OC)cc4)cc3=[N+]3C2=Nc2c(-c4ccc(OC)cc4)c4sc(-c5ccc(OC)cc5)cc4n2[B-]3(F)F)cc1` displayed an emission maximum (in ClC(Cl)Cl) of 814 nm. Regarding `Cc1nc2c(ccc3c2sc(/C=C/c2ccc(N(C)C)cc2)[n+]3C)s1`, the emission maximum is recorded as 600 nm (in CO) and 603 nm (in ClC(Cl)Cl). As for `Cc1ccc(C2=Nc3cccc4[n+]3[B-](F)(O2)OC(c2ccc(C)cc2)=N4)cc1`, the emission maximum (in ClCCl) is 457 nm.
